Assays:
[1] = biological target: Recombinant ROCK1 (Homo sapiens (Human), UniProt Q13464); assay: Lance Ultra Kinase Assay, ROCK1 inhibition; type: biochemical; settings: ATP at Km, 30 min pre-incubation, 1 h reaction
Method: The inhibition potency of compounds against these enzymes was assessed using Lance Ultra Kinase Assay. In brief, recombinant kinases were pre-incubated in the presence or absence of compound at room temperature for 30 minutes. The reaction was initiated by the addition of the ATP (Km) and substrate peptide which could be phosphorylated by kinases in the reaction. After 1 h incubation, the reaction was stopped by the addition of the detection reagent mix containing EDTA. The fluorescence was measured at 615 nm and 665 nm, respectively with excitation wavelength at 320 nm. The calculated signal ratio of 665 nm/615 nm is proportional to the kinase activity.

[2] = biological target: Recombinant ROCK2 (Homo sapiens (Human), UniProt O75116); assay: Lance Ultra Kinase Assay, ROCK2 inhibition; type: biochemical; settings: ATP at Km, 30 min pre-incubation, 1 h reaction
Recombinant ROCK2, sequence (O75116 whole entry): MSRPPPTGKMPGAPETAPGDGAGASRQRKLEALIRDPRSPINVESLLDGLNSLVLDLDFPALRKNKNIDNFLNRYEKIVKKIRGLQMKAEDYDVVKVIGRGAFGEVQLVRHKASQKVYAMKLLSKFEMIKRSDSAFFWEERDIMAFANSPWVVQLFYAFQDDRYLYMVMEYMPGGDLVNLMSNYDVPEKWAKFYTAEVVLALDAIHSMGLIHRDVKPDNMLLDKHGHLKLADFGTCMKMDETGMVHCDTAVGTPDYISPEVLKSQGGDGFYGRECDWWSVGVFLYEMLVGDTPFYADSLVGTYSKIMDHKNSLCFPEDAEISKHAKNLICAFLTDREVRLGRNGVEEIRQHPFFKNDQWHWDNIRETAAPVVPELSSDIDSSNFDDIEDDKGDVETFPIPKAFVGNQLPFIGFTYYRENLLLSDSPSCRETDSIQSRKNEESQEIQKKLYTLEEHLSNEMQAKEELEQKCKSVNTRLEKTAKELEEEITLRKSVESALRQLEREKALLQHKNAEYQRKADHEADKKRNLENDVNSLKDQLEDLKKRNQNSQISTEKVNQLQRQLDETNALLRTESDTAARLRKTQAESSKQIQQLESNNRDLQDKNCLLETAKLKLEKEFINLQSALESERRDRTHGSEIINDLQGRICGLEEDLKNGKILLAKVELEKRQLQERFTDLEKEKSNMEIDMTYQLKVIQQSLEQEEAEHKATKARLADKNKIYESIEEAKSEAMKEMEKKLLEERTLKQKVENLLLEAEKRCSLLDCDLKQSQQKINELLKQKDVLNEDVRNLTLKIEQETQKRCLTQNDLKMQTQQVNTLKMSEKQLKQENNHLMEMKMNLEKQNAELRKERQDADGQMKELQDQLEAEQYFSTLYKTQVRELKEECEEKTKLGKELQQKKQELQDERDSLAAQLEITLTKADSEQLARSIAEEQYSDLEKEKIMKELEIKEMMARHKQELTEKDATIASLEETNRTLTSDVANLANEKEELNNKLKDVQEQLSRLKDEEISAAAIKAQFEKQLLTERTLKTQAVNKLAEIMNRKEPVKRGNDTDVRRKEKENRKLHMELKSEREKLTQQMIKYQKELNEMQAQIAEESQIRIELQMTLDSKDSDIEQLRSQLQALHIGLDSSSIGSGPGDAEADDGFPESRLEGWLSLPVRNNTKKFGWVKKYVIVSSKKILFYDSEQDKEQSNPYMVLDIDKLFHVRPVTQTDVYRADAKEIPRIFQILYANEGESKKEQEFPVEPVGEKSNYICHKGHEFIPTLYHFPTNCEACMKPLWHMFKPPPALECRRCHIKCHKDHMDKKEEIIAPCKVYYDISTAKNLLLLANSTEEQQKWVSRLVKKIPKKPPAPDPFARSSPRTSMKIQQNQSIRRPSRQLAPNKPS

Recombinant ROCK1, sequence (Q13464 whole entry): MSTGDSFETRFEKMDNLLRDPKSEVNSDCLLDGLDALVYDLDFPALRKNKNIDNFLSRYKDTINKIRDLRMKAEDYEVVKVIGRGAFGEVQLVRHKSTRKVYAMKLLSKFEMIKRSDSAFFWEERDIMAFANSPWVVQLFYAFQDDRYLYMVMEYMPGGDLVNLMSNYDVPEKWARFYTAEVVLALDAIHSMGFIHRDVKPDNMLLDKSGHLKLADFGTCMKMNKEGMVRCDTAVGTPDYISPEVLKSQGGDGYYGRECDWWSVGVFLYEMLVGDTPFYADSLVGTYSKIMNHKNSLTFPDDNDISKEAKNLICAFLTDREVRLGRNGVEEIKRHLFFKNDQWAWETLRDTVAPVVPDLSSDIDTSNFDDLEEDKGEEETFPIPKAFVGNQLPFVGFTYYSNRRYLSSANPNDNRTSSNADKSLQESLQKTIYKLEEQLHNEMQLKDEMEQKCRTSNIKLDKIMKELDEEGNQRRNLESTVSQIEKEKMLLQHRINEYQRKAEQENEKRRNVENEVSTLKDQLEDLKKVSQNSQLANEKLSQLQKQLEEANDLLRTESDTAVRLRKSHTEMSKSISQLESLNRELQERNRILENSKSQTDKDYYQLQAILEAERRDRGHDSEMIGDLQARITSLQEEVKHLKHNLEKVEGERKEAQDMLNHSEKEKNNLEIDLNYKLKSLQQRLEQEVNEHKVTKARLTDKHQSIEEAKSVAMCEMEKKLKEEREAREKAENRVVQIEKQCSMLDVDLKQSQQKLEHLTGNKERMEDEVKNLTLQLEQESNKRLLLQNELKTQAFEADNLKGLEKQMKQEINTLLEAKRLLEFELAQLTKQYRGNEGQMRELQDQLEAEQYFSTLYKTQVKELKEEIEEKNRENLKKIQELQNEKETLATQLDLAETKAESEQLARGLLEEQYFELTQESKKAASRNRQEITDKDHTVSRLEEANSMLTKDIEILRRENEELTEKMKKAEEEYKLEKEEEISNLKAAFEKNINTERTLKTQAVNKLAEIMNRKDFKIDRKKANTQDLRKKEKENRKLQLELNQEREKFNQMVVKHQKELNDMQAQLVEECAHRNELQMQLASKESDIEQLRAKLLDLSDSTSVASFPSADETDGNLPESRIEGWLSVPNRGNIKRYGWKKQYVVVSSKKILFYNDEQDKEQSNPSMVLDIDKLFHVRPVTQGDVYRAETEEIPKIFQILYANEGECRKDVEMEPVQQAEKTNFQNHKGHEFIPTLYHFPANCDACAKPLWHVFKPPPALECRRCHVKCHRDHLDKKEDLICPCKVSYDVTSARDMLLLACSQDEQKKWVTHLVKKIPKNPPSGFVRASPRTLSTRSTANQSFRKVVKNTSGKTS

SMILES | IC50 [1] | IC50 [2]
NCC(C(=O)Nc1cccc2c(-c3cn[nH]c3)c[nH]c12)c1ccc(CO)nc1 (single isomer, unassigned) [Example 61, N-(3-(1H-pyrazol-4-yl)-1H-indol-7-yl)-3-amino-2-(6-(hydroxymethyl)pyridin-3-yl)propanamide] | 26 nM | 8.9 nM
COc1cncc(C(CN)C(=O)Nc2cccc3c(-c4cn[nH]c4)c[nH]c23)c1 (racemic) [Example 102, 3-amino-2-(5-methoxypyridin-3-yl)-N-[3-(1H-pyrazol-4-yl)-1H-indol-7-yl]propanamide] | 1.3 nM | 0.56 nM
CN1CCN(CC(C(=O)Nc2cccc3c(-c4cn[nH]c4)c[nH]c23)c2cccnc2)CC1 (single isomer, unassigned) [Example 66, N-(3-(1H-pyrazol-4-yl)-1H-indol-7-yl)-3-(4-methylpiperazin-1-yl)-2-(pyridin-3-yl)propanamide] | 604 nM | 310 nM
NCC(C(=O)Nc1cccc2c(-c3cn[nH]c3)c[nH]c12)c1ccc(C(N)=O)cc1 (single isomer, unassigned) [Example 113, 4-(1-((3-(1H-pyrazol-4-yl)-1H-indol-7-yl)amino)-3-amino-1-oxopropan-2-yl)benzamide] | 110 nM | 43 nM
NCC(C(=O)Nc1cccc2c(-c3cn[nH]c3)c[nH]c12)c1cccc(CO)c1 (racemic) [Example 75, 3-amino-2-[3-(hydroxymethyl)phenyl]-N-[3-(1H-pyrazol-4-yl)-1H-indol-7-yl]propanamide] | 204 nM | 71 nM
CN1CCN(C(C(=O)Nc2cccc3c(-c4cn[nH]c4)c[nH]c23)c2ccccc2)CC1 (racemic) [Example 46, 2-(4-methylpiperazin-1-yl)-2-phenyl-N-[3-(1H-pyrazol-4-yl)-1H-indol-7-yl]acetamide] | 4 nM | 2.3 nM
COc1cncc(C(CN2CCN(C)CC2)C(=O)Nc2cccc3c(-c4cn[nH]c4)c[nH]c23)c1 (single isomer, unassigned) [Example 110, N-(3-(1H-pyrazol-4-yl)-1H-indol-7-yl)-2-(5-methoxypyridin-3-yl)-3-(4-methylpiperazin-1-yl)propanamide] | 6.6 nM | 3.3 nM
CP(C)(=O)c1ccc(C(CN)C(=O)Nc2cccc3c(-c4cn[nH]c4)c[nH]c23)cc1 (racemic) [Example 97, 3-amino-2-[4-(dimethylphosphoryl)phenyl]-N-[3-(1H-pyrazol-4-yl)-1H-Indol-7-yl]propanamide] | 122 nM | 28 nM
N#Cc1cccc([C@H](N)C(=O)Nc2cccc3c(-c4cn[nH]c4)c[nH]c23)c1 (single isomer, unassigned) [Example 69, N-(3-(1H-pyrazol-4-yl)-1H-indol-7-yl)-2-amino-2-(3-cyanophenyl) acetamide] | 21 nM | 9.2 nM
COc1cccc([C@@H](C(=O)Nc2cccc3c(-c4cn[nH]c4)c[nH]c23)C2CCN(C)CC2)c1 (single isomer, unassigned) [Example 29, N-(3-(1H-pyrazol-4-yl)-1H-indol-7-yl)-2-(3-methoxyphenyl)-2-(1-methylpiperidin-4-yl) acetamide] | 59 nM | 23 nM
NCC(C(=O)Nc1cccc2c(-c3cn[nH]c3)c[nH]c12)c1cccnc1 (single isomer, unassigned) [Example 33, N-(3-(1H-pyrazol-4-yl)-1H-indol-7-yl)-3-amino-2-(pyridin-3-yl)propanamide] | 97 nM | 50 nM
CC(=O)NCc1ccc(C(CN)C(=O)Nc2cccc3c(-c4cn[nH]c4)c[nH]c23)cc1 (racemic) [Example 99, N-(3-(1H-pyrazol-4-yl)-1H-indol-7-yl)-2-(4-(acetamidomethyl)phenyl)-3-aminopropanamide] | 3.2 nM | 1.1 nM
COc1cccc(C(CN2CCN(C)CC2)NC(=O)c2cccc3c(-c4cn[nH]c4)c[nH]c23)c1 (single isomer, unassigned) [Example 137, N-(1-(3-methoxyphenyl)-2-(4-methylpiperazin-1-yl)ethyl)-3-(1H-pyrazol-4-yl)-1H-indole-7-carboxamide] | 149 nM | 65 nM
NCC(C(=O)Nc1cccc2c(-c3cn[nH]c3)c[nH]c12)c1cccc(N)c1 (racemic) [Example 81, 3-amino-2-(3-aminophenyl)-N-[3-(1H-pyrazol-4-yl)-1H-indol-7-yl]propanamide] | 1.8 nM | 0.91 nM
COc1ccc(C(N)C(=O)Nc2cccc3c(-c4cn[nH]c4)c[nH]c23)cc1 (racemic) [Example 104, 2-amino-2-(4-methoxyphenyl)-N-[3-(1H-pyrazol-4-yl)-1H-indol-7-yl]acetamide] | 2 nM | 0.9 nM
NCC(C(=O)Nc1cccc2c(-c3cn[nH]c3)c[nH]c12)c1ccc(O)cc1 (racemic) [Example 79, N-(3-(1H-pyrazol-4-yl)-1H-indol-7-yl)-3-amino-2-(4-hydroxyphenyl)-propanamide] | 2.9 nM | 1.7 nM
CP(C)(=O)c1cccc(C(CN)NC(=O)c2cccc3c(-c4cn[nH]c4)c[nH]c23)c1 (racemic) [Example 151, (rac)-N-{2-amino-1-[3-(dimethylphosphoryl)phenyl]ethyl}-3-(1H-pyrazol-4-yl)-1H-indole-7-carboxamide] | 204 nM | 71 nM

SMILES | IC50 [1] | IC50 [2]
NCC(C(=O)Nc1cccc2c(-c3cn[nH]c3)c[nH]c12)c1ccccn1 (racemic) [Example 98, 3-amino-N-[3-(1H-pyrazol-4-yl)-1H-indol-7-yl]-2-(pyridin-2-yl)propanamide] | 9.2 nM | 4.3 nM
Cc1cncc(C(CN)C(=O)Nc2cccc3c(-c4cn[nH]c4)c[nH]c23)c1 (single isomer, unassigned) [Example 63, N-(3-(1H-pyrazol-4-yl)-1H-indol-7-yl)-3-amino-2-(5-methylpyridin-3-yl)propanamide] | 0.43 nM | 0.24 nM
COc1cccc(C(CN)C(=O)Nc2cccc3c(-c4cn[nH]c4)c[nH]c23)c1 (single isomer, unassigned) [Example 17, N-(3-(1H-pyrazol-4-yl)-1H-indol-7-yl)-3-amino-2-(3-methoxyphenyl)propanamide] | 31 nM | 15 nM
NC[C@@H](Cc1ccccc1)C(=O)Nc1cccc2c(-c3cn[nH]c3)c[nH]c12 [Example 53, (2R)-3-amino-2-benzyl-N-[3-(1H-pyrazol-4-yl)-1H-indol-7-yl]propanamide] | 5.8 nM | 4.1 nM
COc1cccc(C(CN2CCN(C)CC2)C(=O)Nc2cccc3c(-c4cn[nH]c4)c[nH]c23)c1 (single isomer, unassigned) [Example 35, N-(3-(1H-pyrazol-4-yl)-1H-indol-7-yl)-2-(3-methoxyphenyl)-3-(4-methylpiperazin-1-yl)propanamide] | 1.8 nM | 0.76 nM
Cc1cncc(C(CN)C(=O)Nc2cccc3c(-c4cn[nH]c4)c[nH]c23)c1 (single isomer, unassigned) [Example 62, N-(3-(1H-pyrazol-4-yl)-1H-indol-7-yl)-3-amino-2-(5-methylpyridin-3-yl)propanamide] | 68 nM | 31 nM
CN1CCN(CC(C(=O)Nc2cccc3c(-c4cn[nH]c4)c[nH]c23)c2ccccc2)CC1 (single isomer, unassigned) [Example 39, N-(3-(1H-pyrazol-4-yl)-1H-indol-7-yl)-3-(4-methylpiperazin-1-yl)-2-phenylpropanamide] | 175 nM | 116 nM
NCC(C(=O)Nc1cccc2c(-c3cn[nH]c3)c[nH]c12)c1ccc(C(=O)O)cc1 (racemic) [Example 71, 4-(2-amino-1-{[3-(1H-pyrazol-4-yl)-1H-indol-7-yl]carbamoyl}ethyl)benzoic acid] | 227 nM | 64 nM
NCC(C(=O)Nc1cccc2c(-c3cn[nH]c3)c[nH]c12)c1ccc(C(N)=O)cc1 (single isomer, unassigned) [Example 112, 4-(1-((3-(1H-pyrazol-4-yl)-1H-indol-7-yl)amino)-3-amino-1-oxopropan-2-yl)benzamide] | 1.3 nM | 0.47 nM
Cc1cccc(C(CN)C(=O)Nc2cccc3c(-c4cn[nH]c4)c[nH]c23)n1 (racemic) [Example 93, 3-amino-2-(6-methylpyridin-2-yl)-N-[3-(1H-pyrazol-4-yl)-1H-indol-7-yl]propanamide] | 20 nM | 13 nM
NCC(C(=O)Nc1cccc2c(-c3cn[nH]c3)c[nH]c12)c1cccc(C(=O)O)c1 (racemic) [Example 70, 3-(2-amino-1-{[3-(1H-pyrazol-4-yl)-1H-indol-7-yl]carbamoyl}ethyl)benzoic acid] | 2.2 nM | 0.6 nM
NCCC(NC(=O)c1cccc2c(-c3cn[nH]c3)c[nH]c12)c1ccccc1 (racemic) [Example 140, N-(3-amino-1-phenylpropyl)-3-(1H-pyrazol-4-yl)-1H-indole-7-carboxamide] | 2.8 nM | 0.86 nM
NCC(Cc1ccccc1)NC(=O)c1cccc2c(-c3cn[nH]c3)c[nH]c12 (racemic) [Example 147, N-(1-amino-3-phenylpropan-2-yl)-3-(1H-pyrazol-4-yl)-1H-indole-7-carboxamide] | 0.88 nM | 0.4 nM
Cc1ccc(C(=O)OCc2ccc(C(CN)C(=O)Nc3cccc4c(-c5cn[nH]c5)c[nH]c34)cc2)c(C)c1 (single isomer, unassigned) [Example 5] | 8 nM | 4.3 nM
COc1cccc([C@H](C(=O)Nc2cccc3c(-c4cn[nH]c4)c[nH]c23)C2CCN(C)CC2)c1 (single isomer, unassigned) [Example 30, N-(3-(1H-pyrazol-4-yl)-1H-indol-7-yl)-2-(3-methoxyphenyl)-2-(1-methylpiperidin-4-yl) acetamide] | 3.2 nM | 1.1 nM
CN1CCN(C(C(=O)Nc2cccc3c(-c4cn[nH]c4)c[nH]c23)C2CCCCC2)CC1 (racemic) [Example 129, 2-cyclohexyl-2-(4-methylpiperazin-1-yl)-N-[3-(1H-pyrazol-4-yl)-1H-indol-7-yl]acetamide] | 1.7 nM | 1.7 nM

From patent US20250346616A1 (DIZAL (JIANGSU) PHARMACEUTICAL CO., LTD., priority 2022, published 2025)
